Patent US6603046B1, “Bis-aromatic a,β-unsaturated ketones” (Lica Pharmaceuticals A/S, priority 1992, dated 2003)
Converted amounts (≈) assume the structure as drawn. Read-outs that look alike come from different tables or passages of the source.

Experiments:
Strain = H37RV [1] = test: MIC with and without 10% human serum; type: cell-based; details: Mycobacterium tuberculosis, H37RV
Strain = H37RV [2] = details: cited from earlier work
[3] = tested on: chloroquine resistant P. falciparum DD2 strain; test: In vitro growth of P. falciparum DD2, 3H-hypoxanthine uptake (Example 15); type: cell-based, Plasmodium falciparum; details: title: percentage inhibition of 3H-hypoxanthine uptake
[4] = with 10% Human Serum, read-out: MIC+serum
[5] = without 10% Human Serum, read-out: MIC−serum

CC[C@@H](CO)NCCN[C@@H](CC)CO [Ethambutol]
MIC (Strain = H37RV [1]; [4]): 2 µg/mL (≈ 9.79 µM)
MIC (Strain = H37RV [1]; [5]): 1 µg/mL (≈ 4.89 µM)
protein binding (Strain = H37RV [2]): (40% protein

CC1COc2c(N3CCN(C)CC3)c(F)cc3c(=O)c(C(=O)O)cn1c23 (centres unmarked) [Ofloxacin]
MIC (Strain = H37RV [1]; [4]): 0.5 µg/mL (≈ 1.38 µM)
MIC (Strain = H37RV [1]; [5]): 0.5 µg/mL (≈ 1.38 µM)
protein binding (Strain = H37RV [2]): (5% protein

CC(=O)O[C@H]1C[C@@]2(C)[C@@H](C[C@@H](O)[C@H]3[C@@]4(C)CC[C@@H](O)[C@@H](C)[C@@H]4CC[C@@]32C)/C1=C(\CCC=C(C)C)C(=O)O [Fusidic acid]
MIC (Strain = H37RV [1]; [4]): 32 µg/mL (≈ 61.9 µM)
MIC (Strain = H37RV [1]; [5]): 8 µg/mL (≈ 15.5 µM)
protein binding (Strain = H37RV [2]): (90% protein

C=CCOc1ccc(C(=O)/C=C/c2cccc(OC)c2OC)cc1 [2,3-Dimethoxy-4′-allyloxychalcone, 2,3-dimethoxy-4′-prop-2-enyloxychalcone]
Growth in % of control (mean ± SEM) ([3]; 0.5 μg/ml): 28.5 ± 9.6%
Growth in % of control (mean ± SEM) ([3]; 1 μg/ml): 29.6 ± 10.9%
Growth in % of control (mean ± SEM) ([3]; 5 μg/ml): 22.2 ± 10.1%
Growth in % of control (mean ± SEM) ([3]; 10 μg/ml): 49.9 ± 9.1%
melting point: 98 to 99 °C
